Assay results: article PMC5478727, “A Novel Small Molecule GDNF Receptor RET Agonist, BT13, Promotes Neurite Growth from Sensory Neurons in Vitro and Attenuates Experimental Neuropathy in the Rat” (Frontiers in Pharmacology, 2017)

What was measured:
[1] = molecular target: T1, serotonin receptor 5-HT2A (Homo sapiens, UniProt P28223); assay: CEREP 5-HT2A (h) (agonist radioligand); format: binding; details: BT13 1 μM; Cat. No. 0471; average of duplicate; read-out: Percentage of inhibition/potentiation from control
T1 construct: purchased CEREP (contract assay) 0471

cannabinoid receptor CB1 = cannabinoid receptor CB1 (Homo sapiens, UniProt P21554); assay: CEREP CB1 (h) (agonist radioligand); format: binding; details: BT13 1 μM; Cat. No. 0036; average of duplicate; read-out: Percentage of inhibition/potentiation from control
[2] = molecular target: T2, vasoactive intestinal peptide receptor PAC1 (PACAP) (Homo sapiens, UniProt P41586); assay: CEREP PAC1 (PACAP) (h) (agonist radioligand); format: binding; details: BT13 1 μM; Cat. No. 1518; average of duplicate; read-out: Percentage of inhibition/potentiation from control
T2 construct: purchased CEREP (contract assay) 1518

[3] = molecular target: Ca2+ channel (L, diltiazem site) (Rattus norvegicus, UniProt P22002); assay: CEREP Ca2+ channel (L, diltiazem site) (benzothiazepines) (antagonist radioligand); format: binding; details: BT13 1 μM; Cat. No. 0162; average of duplicate; read-out: Percentage of inhibition/potentiation from control
GABA receptor GABAB(1b) = GABA receptor GABAB(1b) (Homo sapiens, UniProt Q9UBS5); assay: CEREP GABAB(1b) (h) (antagonist radioligand); format: binding; details: read-out: Percentage of inhibition/potentiation from control
[4] = tested on: rats with spinal nerve ligation (L5/L6); assay: Spinal nerve ligation (Chung's) model of experimental neuropathy, von Frey test; details: for increase of ipsilateral paw withdrawal threshold (PWT): von Frey, day 12 post-surgery
[5] = tested on: dorsal root ganglia neurons of SNL rats; assay: Immunohistochemistry of DRG neuronal markers in rats with spinal nerve ligation; format: in vivo, rat
Excerpt: DRGs from rats with spinal nerve ligation treated with BT13 or vehicle were embedded in paraffin and sectioned (7 μm thickness). Sections were deparaffinized, subjected to citrate or basic antigen-retrieval procedure and probed with IB4-Alexa 488 [1:200; IB4-Alexa488, Cat# IB4 (isolectin Griffonia simplicifolia IB4) RRID:AB_2314664] and antibodies against calcitonin gene-related peptide (CGRP; 1:10,000, Peninsula Laboratory, Cat# T-4032 RRID:AB_2313775), NPY (1:10,000, Peninsula Laboratory, Cat# T-4070.0050 RRID:AB_518504), pErk1/2 (1:300, Cell Signaling, Cat# 4370L RRID:AB_2297462), pS6 (1:300, Cell Signaling, Cat# 4858L RRID:AB_1031194) or RET [1:100, kind gift of Dr. E. Kramer, Center for Molecular Neurobiology, University Medical Center Hamburg-Eppendorf, Hamburg, Germany (Meka et al., [2015])] and corresponding secondary antibodies conjugated with fluorophores (Donkey Anti-Rabbit Alexa Fluor 647 conjugate, Cat# A31573 RRID:AB_162544; Donkey anti-Mouse Alexa Fluor 647 conjugate, Cat# A-31571 RRID:AB_2536181; Goat anti-Guinea Pig, Alexa Fluor 568 conjugate, Cat# A-11075 RRID:AB_2534119, Thermo Fisher Scientific, USA) or horse radish peroxidase (VECTASTAIN Elite ABC-Peroxidase Kit antibody, Vector Laboratories, CA, USA, Cat# PK-6101 RRID:AB_2336820). In the latter case, to reveal staining slides were treated with ABC and DAB staining kits (Vector Laboratories, CA, USA) according to the manufacturer's instructions. Sections were co-stained with guinea pig anti-PGP9.5 antibodies (Abcam Cat# ab10410 RRID:AB_297150) whenever possible. Nuclei were visualized using hematoxylin or DAPI dyes. Sections were mounted in Immu-Mount (Thermo Scientific, Cat#9990402) or Coverquick 2000 (Q PATH, Cat#05547530) mounting media and images were taken with fluorescent (Zeiss Imager M2 Axio, Carl Zeiss, Germany) or bright-field (Olympus BX-61, Olympus, Japan) microscopes. Neurons were counted for two sections per DRG and the number of cell profiles with nuclei positive for each specific marker was normalized to the total number of the neurons (identified by PGP9.5 staining or by morphology) per section. Ret-positive neurons were clustered by size using Matlab software R2014b (Mathworks, USA). Statistical analysis was performed using data from three to six individual animals. To obtain sufficient sample size, the data from animals treated with 20 and 25 mg/kg of BT13 were combined.

histamine receptor H1 = molecular target: T3, histamine receptor H1 (Homo sapiens, UniProt P35367); assay: CEREP H1 (h) (antagonist radioligand); format: binding; details: BT13 1 μM; Cat. No. 0870; average of duplicate; read-out: Percentage of inhibition/potentiation from control
T3 construct: purchased CEREP (contract assay) 0870

RET mRNA in DRGs = assay: qPCR of RET mRNA in DRGs of animals with SNL; format: in vivo, rat; details: SNL rats; BT13-treated vs vehicle-treated
[6] = molecular target: T4, serotonin receptor 5-HT1D (Rattus norvegicus, UniProt P28565); assay: CEREP 5-HT1D (agonist radioligand); format: binding; details: BT13 1 μM; Cat. No. 1974; average of duplicate; read-out: Percentage of inhibition/potentiation from control
T4 construct: purchased CEREP (contract assay) 1974

[7] = Metabolic stability in liver microsomes; format: in vitro ADME; details: 0.5 mg/ml rat liver microsomes; read-out: Microsomal stability (% remaining in 30 min)
neurotensin receptor NT = assay: CEREP NT (non-selective; agonist radioligand); format: binding; details: BT13 1 μM; Cat. No. 0465; average of duplicate
[8] = molecular target: cholecystokinin receptor CK1 (CCKA) (Homo sapiens, UniProt P32238); assay: CEREP CK1 (CCKA) (h) (agonist radioligand); format: binding; details: BT13 1 μM; Cat. No. 0039; average of duplicate; read-out: Percentage of inhibition/potentiation from control
KATP channel = KATP channel (Rattus norvegicus, UniProt Q09429); assay: CEREP KATP channel (antagonist radioligand); format: binding; details: BT13 1 μM; Cat. No. 0165; average of duplicate; read-out: Percentage of inhibition/potentiation from control
[9] = SNL rats, BT13 vs vehicle, day 12
[10] = SNL rats, vs vehicle-treated animals

T3 sequence (P35367 whole entry): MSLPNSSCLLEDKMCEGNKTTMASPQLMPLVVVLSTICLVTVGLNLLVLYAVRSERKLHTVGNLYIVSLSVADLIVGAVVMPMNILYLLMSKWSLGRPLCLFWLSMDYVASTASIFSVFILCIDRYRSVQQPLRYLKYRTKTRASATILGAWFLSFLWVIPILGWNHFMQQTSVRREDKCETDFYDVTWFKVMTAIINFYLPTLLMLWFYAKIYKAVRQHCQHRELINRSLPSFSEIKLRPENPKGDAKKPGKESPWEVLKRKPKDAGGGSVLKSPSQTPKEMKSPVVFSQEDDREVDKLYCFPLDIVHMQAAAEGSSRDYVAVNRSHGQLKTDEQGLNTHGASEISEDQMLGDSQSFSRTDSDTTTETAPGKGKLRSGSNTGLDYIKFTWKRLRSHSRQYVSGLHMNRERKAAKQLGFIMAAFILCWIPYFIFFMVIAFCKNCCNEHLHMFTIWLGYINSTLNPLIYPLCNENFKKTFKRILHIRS
Chain of GABA receptor GABAB(1b) (Q9UBS5 1-844 isoform Q9UBS5-2): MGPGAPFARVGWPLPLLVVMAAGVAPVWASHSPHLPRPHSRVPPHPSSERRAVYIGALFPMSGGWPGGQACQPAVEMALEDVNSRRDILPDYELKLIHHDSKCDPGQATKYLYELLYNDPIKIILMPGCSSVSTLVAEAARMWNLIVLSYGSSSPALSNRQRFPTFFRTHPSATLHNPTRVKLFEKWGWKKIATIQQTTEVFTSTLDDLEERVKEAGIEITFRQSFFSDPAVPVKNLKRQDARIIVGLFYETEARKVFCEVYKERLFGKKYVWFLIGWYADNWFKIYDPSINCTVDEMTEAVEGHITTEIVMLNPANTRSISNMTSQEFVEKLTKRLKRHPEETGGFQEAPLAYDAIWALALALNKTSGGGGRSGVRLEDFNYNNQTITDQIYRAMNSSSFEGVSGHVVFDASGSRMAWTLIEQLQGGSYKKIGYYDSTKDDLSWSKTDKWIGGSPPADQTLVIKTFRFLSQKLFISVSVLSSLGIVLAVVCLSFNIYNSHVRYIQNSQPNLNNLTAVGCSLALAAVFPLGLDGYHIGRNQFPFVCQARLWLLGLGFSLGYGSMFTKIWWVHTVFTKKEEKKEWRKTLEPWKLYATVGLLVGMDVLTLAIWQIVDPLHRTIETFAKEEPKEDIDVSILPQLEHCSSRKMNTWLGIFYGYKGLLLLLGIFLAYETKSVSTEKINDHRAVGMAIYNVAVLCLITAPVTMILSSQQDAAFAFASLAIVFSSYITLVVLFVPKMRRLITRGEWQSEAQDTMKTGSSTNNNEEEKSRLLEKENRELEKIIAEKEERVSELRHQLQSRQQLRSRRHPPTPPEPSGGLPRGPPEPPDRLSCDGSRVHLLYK
Chain of cannabinoid receptor CB1 (P21554 whole entry): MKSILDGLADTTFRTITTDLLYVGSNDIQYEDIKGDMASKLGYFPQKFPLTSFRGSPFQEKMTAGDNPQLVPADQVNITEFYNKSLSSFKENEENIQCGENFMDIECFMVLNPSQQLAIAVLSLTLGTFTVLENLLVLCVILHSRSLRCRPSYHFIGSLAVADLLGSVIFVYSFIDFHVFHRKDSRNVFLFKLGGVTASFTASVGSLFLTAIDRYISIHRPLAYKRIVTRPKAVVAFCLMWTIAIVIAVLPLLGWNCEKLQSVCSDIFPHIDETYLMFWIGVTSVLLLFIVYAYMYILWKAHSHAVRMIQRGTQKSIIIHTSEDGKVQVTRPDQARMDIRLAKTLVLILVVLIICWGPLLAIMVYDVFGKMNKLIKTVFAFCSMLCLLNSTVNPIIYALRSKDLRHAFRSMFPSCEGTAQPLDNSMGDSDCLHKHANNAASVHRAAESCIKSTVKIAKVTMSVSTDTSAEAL
Chain of KATP channel (Q09429 whole entry): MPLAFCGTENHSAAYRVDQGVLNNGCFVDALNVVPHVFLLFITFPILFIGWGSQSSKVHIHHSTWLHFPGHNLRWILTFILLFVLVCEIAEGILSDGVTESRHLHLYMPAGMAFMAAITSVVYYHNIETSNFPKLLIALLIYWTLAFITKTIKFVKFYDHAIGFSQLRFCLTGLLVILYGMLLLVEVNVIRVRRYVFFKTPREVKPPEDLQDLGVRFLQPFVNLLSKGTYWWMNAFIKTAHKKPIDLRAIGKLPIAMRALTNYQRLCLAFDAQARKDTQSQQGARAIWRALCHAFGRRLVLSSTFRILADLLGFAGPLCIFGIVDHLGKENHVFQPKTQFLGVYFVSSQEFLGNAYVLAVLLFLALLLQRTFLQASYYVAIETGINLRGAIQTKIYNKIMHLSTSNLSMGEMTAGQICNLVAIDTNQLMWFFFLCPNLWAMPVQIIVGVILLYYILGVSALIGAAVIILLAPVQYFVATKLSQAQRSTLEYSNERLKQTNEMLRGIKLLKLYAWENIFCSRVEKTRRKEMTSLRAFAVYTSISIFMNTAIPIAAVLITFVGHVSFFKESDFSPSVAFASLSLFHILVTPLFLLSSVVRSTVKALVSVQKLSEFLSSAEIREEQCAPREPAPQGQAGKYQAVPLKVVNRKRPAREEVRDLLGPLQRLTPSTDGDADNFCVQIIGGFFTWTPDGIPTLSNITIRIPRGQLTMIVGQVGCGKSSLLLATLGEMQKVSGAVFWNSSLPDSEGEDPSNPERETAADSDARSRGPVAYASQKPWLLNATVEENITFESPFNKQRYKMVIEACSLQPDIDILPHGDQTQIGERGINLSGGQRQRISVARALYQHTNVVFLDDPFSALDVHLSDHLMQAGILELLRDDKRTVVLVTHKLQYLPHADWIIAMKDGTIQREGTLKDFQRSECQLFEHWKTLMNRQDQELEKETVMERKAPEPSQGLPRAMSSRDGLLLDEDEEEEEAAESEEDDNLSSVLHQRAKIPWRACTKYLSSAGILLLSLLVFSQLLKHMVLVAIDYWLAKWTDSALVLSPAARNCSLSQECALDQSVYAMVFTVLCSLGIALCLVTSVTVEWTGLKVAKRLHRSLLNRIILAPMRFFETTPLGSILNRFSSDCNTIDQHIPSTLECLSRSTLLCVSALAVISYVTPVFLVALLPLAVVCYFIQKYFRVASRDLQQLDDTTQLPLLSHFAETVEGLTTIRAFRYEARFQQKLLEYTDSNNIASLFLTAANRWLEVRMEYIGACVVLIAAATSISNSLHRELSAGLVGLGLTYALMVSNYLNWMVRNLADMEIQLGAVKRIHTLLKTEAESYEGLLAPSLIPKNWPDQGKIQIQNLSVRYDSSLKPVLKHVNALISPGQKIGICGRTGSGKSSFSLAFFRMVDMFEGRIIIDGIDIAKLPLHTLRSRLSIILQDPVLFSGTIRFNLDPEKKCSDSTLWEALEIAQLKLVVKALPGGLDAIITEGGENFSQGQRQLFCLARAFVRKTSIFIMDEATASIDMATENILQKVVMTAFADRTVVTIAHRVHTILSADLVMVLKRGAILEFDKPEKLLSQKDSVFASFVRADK
Chain of KATP channel (P70673 whole entry partner): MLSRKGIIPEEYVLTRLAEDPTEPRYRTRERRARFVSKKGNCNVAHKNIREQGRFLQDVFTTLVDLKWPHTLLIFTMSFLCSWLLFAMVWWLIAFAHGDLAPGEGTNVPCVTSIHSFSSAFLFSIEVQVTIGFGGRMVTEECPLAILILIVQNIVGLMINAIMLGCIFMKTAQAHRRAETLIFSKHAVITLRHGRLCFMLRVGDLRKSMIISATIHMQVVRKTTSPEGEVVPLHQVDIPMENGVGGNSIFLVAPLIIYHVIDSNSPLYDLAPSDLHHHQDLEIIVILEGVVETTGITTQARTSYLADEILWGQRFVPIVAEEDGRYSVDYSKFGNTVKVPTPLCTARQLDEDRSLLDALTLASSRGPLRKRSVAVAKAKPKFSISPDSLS
Chain of cholecystokinin receptor CK1 (CCKA) (P32238 whole entry): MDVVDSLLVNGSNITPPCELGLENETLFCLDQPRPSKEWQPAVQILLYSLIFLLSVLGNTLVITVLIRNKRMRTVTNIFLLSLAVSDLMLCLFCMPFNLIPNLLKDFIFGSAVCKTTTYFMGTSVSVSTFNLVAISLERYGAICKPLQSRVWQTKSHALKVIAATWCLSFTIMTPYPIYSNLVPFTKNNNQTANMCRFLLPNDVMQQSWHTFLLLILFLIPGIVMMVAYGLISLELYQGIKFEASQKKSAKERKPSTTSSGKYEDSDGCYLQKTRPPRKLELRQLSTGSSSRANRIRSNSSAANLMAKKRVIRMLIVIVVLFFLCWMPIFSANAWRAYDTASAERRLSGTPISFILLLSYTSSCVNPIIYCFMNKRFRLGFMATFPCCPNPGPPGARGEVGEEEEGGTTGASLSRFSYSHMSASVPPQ
T1 sequence (P28223 whole entry): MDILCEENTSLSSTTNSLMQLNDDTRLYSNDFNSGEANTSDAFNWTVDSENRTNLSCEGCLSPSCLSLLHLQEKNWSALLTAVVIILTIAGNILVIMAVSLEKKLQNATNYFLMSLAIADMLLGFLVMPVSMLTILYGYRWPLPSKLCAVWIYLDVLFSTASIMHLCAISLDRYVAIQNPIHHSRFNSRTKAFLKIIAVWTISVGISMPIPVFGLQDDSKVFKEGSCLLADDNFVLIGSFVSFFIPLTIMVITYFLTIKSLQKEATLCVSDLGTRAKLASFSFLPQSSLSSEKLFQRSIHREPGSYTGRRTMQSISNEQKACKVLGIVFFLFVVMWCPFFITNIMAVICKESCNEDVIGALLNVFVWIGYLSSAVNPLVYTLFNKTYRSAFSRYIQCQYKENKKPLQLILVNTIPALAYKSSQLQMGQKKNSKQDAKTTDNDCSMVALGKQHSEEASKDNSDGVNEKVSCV
T4 sequence (P28565 whole entry): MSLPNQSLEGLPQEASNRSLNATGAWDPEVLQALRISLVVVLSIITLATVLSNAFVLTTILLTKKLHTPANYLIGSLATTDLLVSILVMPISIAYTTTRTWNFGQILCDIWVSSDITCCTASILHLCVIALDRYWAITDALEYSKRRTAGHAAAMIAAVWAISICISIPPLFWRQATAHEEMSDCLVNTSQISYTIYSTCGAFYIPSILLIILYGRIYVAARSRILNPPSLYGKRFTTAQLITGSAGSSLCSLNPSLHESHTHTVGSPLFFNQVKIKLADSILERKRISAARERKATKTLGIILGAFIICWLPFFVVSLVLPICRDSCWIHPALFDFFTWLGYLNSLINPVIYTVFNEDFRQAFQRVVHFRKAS

CCN(CC)S(=O)(=O)c1ccc(OC)c(N2CCN(C(=O)c3ccc(F)cc3C(F)(F)F)CC2)c1 [BT13]
inhibition at 1 µM [1]: -11%
inhibition at 1 µM (cannabinoid receptor CB1): 9%
inhibition at 1 µM [2]: 14%
inhibition at 1 µM [3]: 16%
inhibition at 1 µM (GABA receptor GABAB(1b)): -2%
increase of ipsilateral paw withdrawal threshold (PWT) ([4]; BT13 20 mg/kg s.c. on days 1, 3, 5, 8, 10, 12): 2.5 times
increase of ipsilateral paw withdrawal threshold (PWT) ([4]; BT13 25 mg/kg s.c. on days 1, 3, 5, 8, 10, 12): 2.9 times
effect on contralateral PWTs ([4]; repeated post-surgical s.c. administration of BT13): did not influence
reduction in the number of RET-positive cells in DRGs after SNL ([5]; IHC, day 12 after SNL): restored
number of large RET-positive neurons in lesioned DRGs ([5]; IHC, size above 1,000 μm^2, vs contralateral): increased
number of small RET-positive neurons in lesioned DRGs ([5]; IHC, size below 1,000 μm^2, vs contralateral): decreased
IB4 positive cells per section in ipsilateral DRGs ([5]; SNL rats, BT13 20 and 25 mg/kg combined, day 12): 3%
number of NPY-positive neurons in contralateral DRGs ([5]; SNL rats, BT13-treated, vehicle 0.0 ± 0.0): 0.0 ± 0.0
number of CGRP-positive neurons in contralateral DRGs ([5]; SNL rats, BT13-treated, vehicle 34.30 ± 1.344): 25.09 ± 2.687
number of IB4-positive neurons in contralateral DRGs ([5]; SNL rats, BT13-treated, vehicle 44.95 ± 4.295): 44.82 ± 1.960
increase in number of CGRP-positive neurons in ipsilateral DRGs [5, 9]: ~ 2 times
reduction in number of NPY-positive cells in ipsilateral DRGs [5, 9]: ~ 25%
number of neurons positive for pErk in DRGs [5, 10]: increased
number of neurons positive for pS6 in DRGs [5, 10]: increased
inhibition at 1 µM (histamine receptor H1): 5%
mRNA level of RET in DRGs (RET mRNA in DRGs): no difference
inhibition at 1 µM [6]: 1%
remaining at 0.5 h [7]: 2.8 ± 0.1%
Percentage of inhibition/potentiation from control (neurotensin receptor NT): −6%
inhibition at 1 µM [8]: 3%
Cytotoxicity to human hepatoma cells (HepG2; LD50) (HepG2 cells): 90.4 ± 8.5 µM
inhibition at 1 µM (KATP channel): 8%
